Entries after “also recorded” stand apart in the source; their conditions may differ.
Tests used:
[1] = tested on: transgenic SOD1^G93A mice; experiment: Hanging wire test (neuromuscular strength and coordination); type: in vivo, mouse; conditions: weekly from day 0, drug groups with mGRPs
Experimental: To assess the motor capacity of our treatment groups, motor skills assays were performed. Starting at day −7 SOD1^G93A mice (n=30) were trained in hanging wire. Animals were trained 3 times a week in 2 days interval. Weekly measurements were performed starting at day 0 until the end of the experiment. Hanging wire test was used to test neuromuscular strength and coordination. Briefly, mice were hung on a wire and had to catch the wire both by upper and lower limbs as well as tangle it with tail in order to move the whole distance towards a stick (repeated three times for each mouse and obtaining an average). Maximum points (1.5 point) were given when mice performed the task. […] A poor score (<0.66 points) was given when a mouse was unable to move the whole distance and the amount of time for which mice were able to hang on the wire (1 sec=0.016 points) was counted. […]
All quantifications were performed including the manual cell counts in a blinded manner. The NeuN and Ibal were counted as positive cells in the ROI (see above) as previously reported. The number of cells was determined by unbiased counting of positive cells. […] Differences between groups were analyzed using a repeated measure ANOVA model with a fixed effect for the group, of the time and a random intercept for the mouse. […] The statistical significance at p<0.05 was then determined.

[2] = tested on: Iba1+ cells (microglial activation); experiment: Immunohistochemistry of microglial cells in brainstem motor nuclei; type: in vivo, mouse; conditions: facial and hypoglossal motor nuclei; compared to Injury
Experimental: At the end of experiment, mice were subjected to full body perfusion with 20% sucrose and 10% buffered formalin suitable for histology assays (Sigma Aldrich, St.Louis, MO, USA). Mice were decapitated and incubated in formalin for 24 h. Following the tissues (brain and spinal cord) were isolated, paraffin fixed for further analyses. After brain removal, the tissue was fixed in a formaldehyde solution (4%) for 2-4 hours at RT followed by 4° C. for a total time of 24-48 hours. Fixed tissues were embedded in paraffin and finally sectioned into 7 μm slices. […]
Assessment of neuronal and microglial positive cells were performed in the region of interest (ROI). […] The images were analyzed and reconstructed using Image J (US National Institutes of Health).
All quantifications were performed including the manual cell counts in a blinded manner. The NeuN and Ibal were counted as positive cells in the ROI (see above) as previously reported. The number of cells was determined by unbiased counting of positive cells. […] Differences between groups were analyzed using a repeated measure ANOVA model with a fixed effect for the group, of the time and a random intercept for the mouse. In a second, more explorative, approach for each group the time when the physical activity was first measured below a certain threshold was determined. […]

immature brain injury = conditions: murine model of immature brain injury; cited from earlier work

## MVRIKPGSANKPSDD [sPIF]
[1]
  motor performance in hanging wire test (early motor impairment): significant delay of early motor impairment; also recorded: significant improvement of motor outcome
[2]
  number of Iba1+ microglial cells (neuroinflammation): significant prevention of neuroinflammation
Immature brain injury
  neuronal loss and microglial activation: mitigate neuronal loss and microglial activation

Source: US20250170212A1, “COMPOSITIONS AND METHODS OF TREATING AMYOTROPHIC LATERAL SCLEROSIS (ALS) AND RELATED DISORDERS” (BIOINCEPT, LLC, priority 2022, published 2025)
